These compounds were tested against 5-hydroxytryptamine receptor 2A (Homo sapiens, UniProt P28223) (assay: Competition Binding Assay). Conditions: pH 7.4; 37 °C.
Description: 5-HT-2A receptor affinity was determined by a radioligand competition binding assay with GF-62 cells, a clonal cell line expressing high amounts of 5-HT-2A receptors.

Chain of 5-hydroxytryptamine receptor 2A (P28223 whole entry): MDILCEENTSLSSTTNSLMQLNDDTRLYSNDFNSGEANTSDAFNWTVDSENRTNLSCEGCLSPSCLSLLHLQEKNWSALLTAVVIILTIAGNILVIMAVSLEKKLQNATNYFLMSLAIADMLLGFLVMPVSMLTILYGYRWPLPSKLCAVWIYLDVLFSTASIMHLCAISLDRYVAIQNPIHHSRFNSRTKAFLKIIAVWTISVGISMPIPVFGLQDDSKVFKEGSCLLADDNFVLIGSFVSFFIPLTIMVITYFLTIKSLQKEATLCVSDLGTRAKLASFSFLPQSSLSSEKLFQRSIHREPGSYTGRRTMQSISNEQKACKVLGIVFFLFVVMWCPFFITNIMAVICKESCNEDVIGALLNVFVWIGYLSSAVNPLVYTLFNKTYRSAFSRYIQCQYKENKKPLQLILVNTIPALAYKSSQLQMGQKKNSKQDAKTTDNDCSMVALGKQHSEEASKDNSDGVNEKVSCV

Ki | Compound
0.39 µM | COc1cccc(C(O)C2CCN(CCn3c(=S)[nH]c4ccccc4c3=O)CC2)c1OC (centres undefined) [3-(2-{4-[(2,3-dimethoxyphenyl)(hydroxy)methyl]piperidin-1-yl}ethyl)-2-sulfanylidene-1,2,3,4-tetrahydroquinazolin-4-one, 4b]
0.411 µM | COc1cccc(C(=O)C2CCN(CCn3c(=S)[nH]c4ccccc4c3=O)CC2)c1OC [3-(2-{4-[(2,3-dimethoxyphenyl)carbonyl]piperidin-1-yl}ethyl)-2-sulfanylidene-1,2,3,4-tetrahydroquinazolin-4-one, 4a]
0.356 µM | COc1c(OCCF)cccc1C(O)C1CCN(CCn2c(=S)[nH]c3ccccc3c2=O)CC1 (centres undefined) [3-[2-(4-{[3-(2-fluoroethoxy)-2-methoxyphenyl](hydroxy)methyl}piperidin-1-yl)ethyl]-2-sulfanylidene-1,2,3,4-tetrahydroquinazolin-4-one, 4c]
0.057 µM | COc1c(OCCF)cccc1/C(=N/OCCN(C)C)C1CCN(CCc2ccc(F)cc2)CC1 [(E)-[2-(dimethylamino)ethoxy]({[3-(2-fluoroethoxy)-2-methoxyphenyl]({1-[2-(4-fluorophenyl)ethyl]piperidin-4-yl})methylidene})amine, 8]

— BindingDB's records for doi:10.1111/j.1747-0285.2010.01011.x (University of Mainz, 2010)
